Values joined by “and” are separate entries in the source; they are usually repeats but may differ in a detail not shown here. Equal entries are not always repeated.

A short description of this data set: photoluminescence quantum yield (fraction); solvent given as SMILES.
Setting [1] is: in c1ccc2c(c1)c1ccccc1n2-c1ccc(-c2ccc(-n3c4ccccc4c4ccccc43)cc2)cc1.

For the setting “in C1CCOC1”, `CC(C)(C)c1ccc(-c2c(-c3cccc(-n4c5ccccc5c5ccccc54)c3)c(C#N)c(-c3cccc(-n4c5ccccc5c5ccccc54)c3)c(-c3ccc(C(C)(C)C)cc3)c2-c2ccc(C(C)(C)C)cc2)cc1` displayed a photoluminescence quantum yield of 0.064.
Where the note is “in C1CCOC1”, `Cc1ccc(-c2ccc(-c3ccc(-c4ccc(-c5ccc(C)cc5)cc4)c(/C(=C(/c4ccccc4)c4cc(-c5ccc(-c6ccc(C)cc6)cc5)ccc4-c4ccc(-c5ccc(C)cc5)cc4)c4ccccc4)c3)cc2)cc1` had a photoluminescence quantum yield of 0.3.
Compound `CCOC(=O)/C(C#N)=C\c1ccc2c(c1)c1ccccc1n2-c1ccc(C)cc1` came in with a photoluminescence quantum yield (in C1CCOC1) of 0.09; a photoluminescence quantum yield (in CC#N) of 0.01; a photoluminescence quantum yield (in CC(C)=O) of 0.025; a photoluminescence quantum yield (in CCOC(C)=O) of 0.11; a photoluminescence quantum yield (in CO) of 0.06; a photoluminescence quantum yield (in CS(C)=O) of 0.04. The photoluminescence quantum yield turned out to be 0.095 (in Cc1ccccc1) and 0.08 (in ClC(Cl)Cl).
`N#Cc1c(C#N)c2cc(Cl)c(Cl)cc2c2cc(Cl)c(Cl)cc12` registered a photoluminescence quantum yield (in ClC(Cl)Cl) of 0.01.
For `COC(=O)/C(C#N)=c1\s/c(=c2/s/c(=C(/C#N)C(=O)OC)c3cc(-c4ccc(OC)cc4)sc23)c2sc(-c3ccc(OC)cc3)cc12`, the photoluminescence quantum yield (in Cc1ccccc1) is 0.424.
`CCOC(=O)c1cc(C(=O)OCC)c2ccc(N(C)C)cc2n1` had a photoluminescence quantum yield (in CCO) of 0.41.
`N#CC(C#N)=Cc1ccc2nc(C#Cc3ccc(N(c4ccccc4)c4ccccc4)cc3)sc2c1`: the photoluminescence quantum yield (in Cc1ccccc1) amounted to 0.47.
`CCCCCCCCCCn1nnc(-c2ccc(C#Cc3ccc(C#Cc4ccc(-c5nnn(CCCCCCCCCC)n5)cc4)c4nc5c6ccccc6c6ccccc6c5nc34)cc2)n1`: the photoluminescence quantum yield turned out to be 0.05 (in C1CCOC1), 0.07 (in Cc1ccccc1) and 0.04 (in ClCCl).
`CCCCCCCN1C(=CC2=C([O-])C(=CC3=[N+](CCCCCCC)c4ccccc4C3(C)C)C2=C(C#N)C#N)C(C)(C)c2ccccc21` displayed a photoluminescence quantum yield (in C1COCCO1) of 0.19, a photoluminescence quantum yield (in CCO) of 0.13, a photoluminescence quantum yield (in CN(C)C=O) of 0.08 and a photoluminescence quantum yield (in ClC(Cl)Cl) of 0.18.
Under “in ClCCl”, `O=C(O)C1=C(C(=O)O)C2=C[C@H]3c4ccccc4[C@]2([Se]1)c1ccccc13` gave a photoluminescence quantum yield of 0.38.
With `C(#Cc1ccccc1)C(C#Cc1ccccc1)=Cc1cccc(C=C(C#Cc2ccccc2)C#Cc2ccccc2)c1`, where the note is “in ClC(Cl)Cl”, the photoluminescence quantum yield was 0.06.
Regarding `CN1C(=O)/C(=C/c2ccncc2)N=C1/C=C/c1ccccc1`, the photoluminescence quantum yield runs as follows: (in C1COCCO1) 0.029; (in CC#N) 0.011; (in CCO) 0.099; (in CCOC(C)=O) 0.017; (in O) 0.004.
For the compound `CC(C)c1ccc2ccc3cccc4ccc1c2c34`, the photoluminescence quantum yield came to 0.21 (in CCCCCC), 0.24 (in CO) and 0.41 (in ClCCl).
As to `CC(C)(C)NC(=O)c1cccc2ccc3c4ccc(F)cc4c4cc(F)ccc4c3c12`, the photoluminescence quantum yield (in ClCCl) came to 0.05.
`C(=C(c1ccccc1)c1ccccc1)c1ccc(-c2ccc(-c3nc4c5ccccc5c5ccccc5c4n3-c3cccc(-c4ccc(C=C(c5ccccc5)c5ccccc5)cc4)c3)cc2)cc1` returned a photoluminescence quantum yield (in C1CCOC1) of 0.145.
Turning to `COC1=[N+]2C(=C(c3ccccc3)c3cc(SC#N)c(OC)n3[B-]2(F)F)C=C1SC#N`, the photoluminescence quantum yield is, setting by setting: (in CC#N) 0.1; (in CCCCCC) 0.1; (in CCOC(C)=O) 0.11; (in CO) 0.15; (in ClCCl) 0.17.
Turning to `COc1cc(OC)cc(C2=C3C(C)=C(I)C(/C=C/c4c[nH]c5ccccc45)=[N+]3[B-](F)(F)n3c(/C=C/c4c[nH]c5ccccc45)c(I)c(C)c32)c1`, the photoluminescence quantum yield came out at 0.12 (in C1CCOC1), 0.1 (in CS(C)=O) and 0.15 (in ClCCl).
Take `CCCCC1C(=O)c2cc(Oc3ccc(C(C)(C)C)cc3)c3c4c(Oc5ccc(C(C)(C)C)cc5)cc5c6c(cc(Oc7ccc(C(C)(C)C)cc7)c(c7c(Oc8ccc(C(C)(C)C)cc8)cc(c2c37)C1=O)c64)C1=C(C5=O)c2ccc3ccccc3[n+]2[B-](F)(F)O1` (configuration not stated): the photoluminescence quantum yield (in ClCCl) amounted to 0.5.
`Cc1cc(=O)oc2cc3cc(-c4cn(Cc5ccccc5)nn4)ccc3cc12` yielded a photoluminescence quantum yield (in CCO) of 0.02.
For `CC1=CC(C)=[N+]2C1=C(c1ccc(N(C)C)cc1)c1c(C)cc(C)n1[B-]2(F)F`, the photoluminescence quantum yield (in C1CCOC1) amounted to 0.014; the photoluminescence quantum yield (in CC#N) amounted to 0.005; the photoluminescence quantum yield (in CC(=O)C(C)(C)C) turned out to be 0.015; the photoluminescence quantum yield (in CC(C)=O) is 0.009; the photoluminescence quantum yield (in CCCCCC) turned out to be 0.441; the photoluminescence quantum yield (in CCOC(C)=O) was 0.011.
In the case of `CC(C)[Si]1(C(C)C)c2cc(N(C)C)ccc2-c2ccc(C(F)(F)F)cc21`, the photoluminescence quantum yield worked out at 0.37 (in C1CCCCC1); 0.4 (in CC#N); 0.28 (in CCO); 0.35 (in CCOCC); 0.17 (in CS(C)=O); 0.33 (in ClCCl). Where the note is “in c1ccccc1”, this compound gave a photoluminescence quantum yield of 0.29.
`CC(C)(C)c1ccc2ccc3c(C(C)(C)C)ccc4ccc1c2c43`: the photoluminescence quantum yield is, setting by setting: (in CCCCCC) 0.43; (in CO) 0.54; (in ClCCl) 0.34.
`COc1ccc(-c2nc(-c3ccc(C(=O)O)cc3)[nH]c2-c2ccc(OC)cc2)cc1`: the photoluminescence quantum yield (in CO) came to 0.42.
As to `c1cc2ccc1-c1ccc(cc1)-c1ccc(s1)-c1ccc(cc1)-c1ccc(cc1)-c1ccc(s1)-c1ccc(cc1)-c1ccc(cc1)-c1ccc-2s1`, the photoluminescence quantum yield (in C1CCOC1) stood at 0.27.
Consider `CN1C(C(=O)Nc2ccccn2)=C([O-])c2sccc2S1(=O)=O`, for which the photoluminescence quantum yield (in CCCCO) is 0.0112, the photoluminescence quantum yield (in CCCO) amounted to 0.0085, the photoluminescence quantum yield (in CCO) was 0.00451 and the photoluminescence quantum yield (in CO) came to 0.00214.
Regarding `COc1ccc2c(c1)c1cc(OC)ccc1n2-c1ccc2c(c1)-c1cc(-n3c4ccc(OC)cc4c4cc(OC)ccc43)ccc1P2(=O)c1ccccc1`, the photoluminescence quantum yield runs as follows: (in Cc1ccccc1) 0.79; under setting [1], 0.78.
The compound `[O-][n+]1c(/C=C/c2ccccc2)nc(N2CCOCC2)c2c1CCCC2` yielded a photoluminescence quantum yield (in ClCCl) of 0.21.
The same measure, in the same setting: to `O=[N+]([O-])c1ccc(-c2nc(/C=C/c3ccccc3)c(/C=C/c3ccccc3)[nH]2)cc1` belongs 0.
`Cn1c(-c2ccc(-c3nc(-c4ccccc4)c(-c4ccccc4)n3C)cc2)nc(-c2ccccc2)c1-c1ccccc1`: for the setting “in CC#N”, the photoluminescence quantum yield is 0.9 and 0.66.
Turning to `c1ccc(-c2ccccc2)cc1`, the photoluminescence quantum yield turned out to be 0.25 (in C1CCCCC1) and 0.18 (in C1COCCO1).
Regarding `CCCCOC(=O)c1cc(Cl)c2c3c(Cl)cc4c5c(cc(Cl)c(c6c(Cl)cc(C(=O)OCCCC)c1c26)c53)C(=O)N(c1c(C(C)C)cccc1C(C)C)C4=O`, for the setting “in Cc1ccccc1”, the photoluminescence quantum yield turned out to be 0.89.
As for `COc1cccc2cc(-c3ccc([N+](=O)[O-])cc3)c(=O)oc12`, the photoluminescence quantum yield reads like this: (in C1CCOC1) 0.005; (in CC#N) 0.0019; (in CS(C)=O) 0.0015; (in ClC(Cl)Cl) 0.014.
Compound `CC(=O)c1ccc(-c2cc3c(ccc4sccc43)s2)cc1` came in with a photoluminescence quantum yield (in ClCCl) of 0.12.
Compound `CN(C)c1ccc(/C=C/c2nc3ccc(Br)cc3nc2-c2ccccc2)cc1` showed a photoluminescence quantum yield (in C1COCCO1) of 0.19, a photoluminescence quantum yield (in CC#N) of 0.01 and a photoluminescence quantum yield (in ClCCl) of 0.17.
`N#Cc1cc(-n2c3ccccc3c3ccccc32)c(-n2c3ccccc3c3ccccc32)cc1C#N`: the photoluminescence quantum yield reads like this: (in C1CCOC1) 0.125; (in Cc1ccccc1) 0.465; under setting [1], 0.6.
As to `CCn1c(-c2ccc(-c3ccc4c(c3)C(c3ccccc3)(c3ccccc3)c3ccccc3-4)cc2)c(-c2ccc3ccccc3c2)c(-c2ccc3ccccc3c2)c1-c1ccc(-c2ccc3c(c2)C(c2ccccc2)(c2ccccc2)c2ccccc2-3)cc1`, the photoluminescence quantum yield (in CCOC(C)=O) was determined as 0.99.
`CC(C)(C)c1ccc2c(c1)c1cc(C(C)(C)C)ccc1n2-c1ccc(C#Cc2ccc3c4ccc(C#Cc5ccc(C=C(C#N)C#N)cc5)cc4n(-c4ccc(C(F)(F)F)cc4)c3c2)cc1`: the photoluminescence quantum yield (in ClCCl) is 0.12.
On the same count and under the same terms, to `Cc1ccc(-c2c3nc(c(-c4ccc(C)cc4)c4ccc([nH]4)c(-c4ccc(OC(=O)C(C)c5cccc(C(=O)c6ccccc6)c5)cc4)c4nc(c(-c5ccc(C)cc5)c5ccc2[nH]5)C=C4)C=C3)cc1` (configuration not stated) belongs 0.12.
On to `CCCCCCCCCc1c2ccccc2cc2c1oc1c3oc4c5oc6cc7ccccc7cc6c5c5ccccc5c4c3c3ccccc3c21`, for which the photoluminescence quantum yield (in C1CCOC1) is 0.75.
Take `c1ccc(-c2nc(-c3nc(-c4ccccc4)c(-c4ccccc4)o3)oc2-c2ccccc2)cc1`: under “in C1COCCO1”, the photoluminescence quantum yield was 0.57.
`CC(C)(C)OC(=O)NCCCC(=O)OCc1ccc2c3cccc4cccc(c5cccc1c52)c43` gave a photoluminescence quantum yield (in CCO) of 0.87.
The compound `Cc1ccc(N(c2ccc(C)cc2)c2cc(N(c3ccc(C)cc3)c3ccc(C)cc3)c3ccc4cc(C(C)(C)C)cc5ccc2c3c54)cc1` had a photoluminescence quantum yield (in ClCCl) of 0.78.
For `COC(=O)c1nc(-c2cccc3ccccc23)oc1C`, the photoluminescence quantum yield is 0.58 (in C1CCCCC1), 0.51 (in CC#N), 0.5 (in CCO) and 0.54 (in CCOC(C)=O).
For the compound `F[B-]1(F)n2c(-c3ccccc3)cnc2-c2cccc[n+]21`, the photoluminescence quantum yield reads like this: (in C1CCCCC1) 0.33; (in C1CCOC1) 0.22; (in C1COCCO1) 0.24; (in CC#N) 0.21; (in CCCCCC) 0.32; (in CO) 0.17. The same compound registered a photoluminescence quantum yield (in ClC(Cl)Cl) of 0.24.
